The test system of series [1] is mitochondrial SOD activity. The experiment in a line: SOD2 activity assay in forebrain mitochondrial fractions. The class given is in vivo. The settings on record: treated Sod2−/− mice vs Sod2+/+ mice (1.56±0.17 units/mg protein).
For series [2] the following is noted: mouse, in vivo, po, 15 mg/kg. Here is the method: In another exemplary method, oral administration of AEOL11207 was examined for efficiently to penetrate the blood-brain barrier (BBB) and brain mitochondria. To determine if AEOL11207 penetrates the BBB, preliminary studies were conducted in mice following injection of AEOL 11207. Mice were given a single dose of the compound (15 mg/kg, p.o. AEOL 11207) or vehicle (control). At various times after injection, mice were perfused and brains (cortex) and plasma were extracted with methanol and samples analyzed by an HPLC method as described previously. […] FIGS. 3A and 3B illustrate plasma and brain concentrations of AEOL11207 following s.c. or p.o. administration. […]
FIGS. 3A-3B illustrate exemplary concentrations of AEOL11207 in the plasma (3A) and brains (3B) of the C57BL/6 mice at different times points after a single dose of AEOL11207 (15 mg/kg) administered by the s.c or p.o. route. […] FIG. 3C illustrates an exemplary chromatogram of AEOL 11207 levels measured by HPLC with UV detection at 450 nm in mitochondrial fractions of mouse forebrain 24 hr after AEOL11207 15 mg/kg s.c. as previously described. Recovery of AEOL11207 from mitochondrial samples was determined to be ˜98%. […]
Determination of metalloporphyrin levels AEOL11207 was measured by HPLC-UV following previously described methods (Liang, et al. (2007) J Neurosci 27, 4326-33).

Series [3] can be described thus: Peroxynitrite-induced oxidation of dihydrorhodamine-123. In kind it is biochemical. As to conditions: peroxynitrite 1 μM, dihydrorhodamine 123 10 μM, pH 7.4. The text has this:
Mitochondrial oxidative stress production To determine if increased oxidative stress occurred in mitochondrial fractions, the levels of CoASH, CoASSG, aconitase, ascorbate, cysteine, methionine and 3-NT were examined in the forebrain of Sod2 −/− mice at 15-16 days old. GSH is the most abundant thiol containing antioxidant in tissues and brain (Meister & Anderson (1983) Annu Rev Biochem 52, 711-60) and plays an important role in preventing oxidative damage. […] To determine if direct scavenging of ONOO− could result in decreased 3NT levels by AEOL11207, we measured its ability to inhibit ONOO-induced oxidation of dihydrorhodamine-123.
Measurement of peroxynitrite-induced oxidation of dihydrorhodamine-123 inhibition by metalloporphyrins The peroxynitrite-dependent oxidation of dihydrorhodamine-123 to rhodamine-123 is measured based on previously described methods (Kooy et al. (1994) Free Radic Biol Med 16, 149-56; Szabo, et al. (1996) FEBS Lett 381, 82-6). […] After 10 min incubation at room temperature, the fluorescence of rhodamine 123 was measured using a fluorimeter (Perkin-Elmer, Norwalk, Conn.) at an excitation wavelength of 500 nm, emission wavelength of 536 nm

Series [4] is described as follows: Ames' test (mutagenicity). The class given is cell-based. The text has this: Safety profile: A prototypical metalloporphyrin (AEOL10150; FIG. 1) has completed phase 1 trials in amyotrophic lateral sclerosis patients. Extensive safety studies of this compound have been completed in mice, monkeys and rats. […] Safety studies for the structurally related compound, AEOL11207 need to be completed once its efficacy is established in animal studies.

A further series concerns Wild-type mice. The experiment in a line: Tolerability in wild-type mice. In kind it is in vivo. As to conditions: 5 mg/kg daily, up to 20 days of treatment.

With `COC(=O)c1c2nc(c(C(F)(F)F)c3ccc([n-]3)c(C(=O)OC)c3nc(c(C(F)(F)F)c4ccc1[n-]4)C=C3)C=C2.[Cl-].[Mn+3]` [AEOL11207], the “Cyanide insensitive SOD activity compared to Sod2+/+ mice” value in series [1] is recorded as about 40%. For the same compound, the “estimated concentration in the brain” value in series [2] was “within the protective range”. Half-maximal inhibition in series [3] (IC50) required 3.7 µM. In addition, the “mutagenicity, Ames' test” value in series [4] is given as “negative”. In the series on Wild-type mice, the ill effects result is recorded as “no ill effects” and the mortality result is “no mortality”.

Values taken from patent US20120289492A1, “METHODS OF TREATING MITOCHONDRIAL DISORDERS USING METALLOPORPHYRINS” (priority 2009, published 2012).
